Read-outs that look alike come from different tables or passages of the source.
Target: Human thrombin (Homo sapiens (Human), UniProt P00734)
Assay: Thrombin protease activity inhibition assay (chromogenic substrate S-2238)
Format: biochemical
In short: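 Ten-point, three-fold serial dilutions of compound tested against 3 nM enzyme at RT in Tris buffer (0.05 M, pH 7.4) with 0.015 M NaCl and 0.01% PEG-8000.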

[1] = 3 nM thrombin, 125 μM S-2238, 10 min pre-incubation, RT

Row | SMILES | IC50 [1] [µM] | IC50 [µM]
1 | O=c1c(-c2cc(NCc3ccc(Cl)s3)[nH]n2)cccn1Cc1ccc(Cl)cc1 [Cmpd 38, 1-[(4-chlorophenyl)methyl]-3-(5-[(5-chlorothiophen-2-yl)methyl]amino-1H-pyrazol-3-yl)-1,2-dihydropyridin-2-one] | > 100 | 
2 | CC1(C(=O)n2nc(-c3cccn(Cc4ccoc4)c3=O)cc2NCc2ccc(Cl)s2)CCOCC1 [Cmpd 151, 3-(5-[(5-chlorothiophen-2-yl)methyl]amino-1-[(4-methyloxan-4-yl)carbonyl]-1H-pyrazol-3-yl)-1-(furan-3-ylmethyl)-1,2-dihydropyridin-2-one] | < 0.1 | 
3 | CC1(C(=O)n2nc(-c3cccn(Cc4ccccn4)c3=O)cc2NCc2ccc(Cl)s2)CCOCC1 [Cmpd 153, 3-(5-[(5-chlorothiophen-2-yl)methyl]amino-1-[(4-methyloxan-4-yl)carbonyl]-1H-pyrazol-3-yl)-1-(pyridin-2-ylmethyl)-1,2-dihydropyridin-2-one] | < 0.1 | 
4 | CC1(C(=O)n2nc(-c3cccn(Cc4ncccn4)c3=O)cc2NCc2ccc(Cl)s2)CCOCC1 [Cmpd 156, 3-(5-[(5-chlorothiophen-2-yl)methyl]amino-1-[(4-methyloxan-4-yl)carbonyl]-1H-pyrazol-3-yl)-1-(pyrimidin-2-ylmethyl)-1,2-dihydropyridin-2-one] | < 0.1 | 
5 | CC(C)(C)C(=O)n1nc(-c2cccn(CCN3CCOCC3)c2=O)cc1NCc1ccc(Cl)s1 [Cmpd 89, 3-(5-[(5-chlorothiophen-2-yl)methyl]amino-1-(2,2-dimethylpropanoyl)-1H-pyrazol-3-yl)-1-[2-(morpholin-4-yl)ethyl]-1,2-dihydropyridin-2-one] | < 0.1 | 
6 | CC(C)(C)C(=O)n1nc(-c2cccn(Cc3ccc4ccccc4c3)c2=O)cc1NCc1ccc(Cl)s1 [Cmpd 80, 3-(5-[(5-chlorothiophen-2-yl)methyl]amino-1-(2,2-dimethylpropanoyl)-1H-pyrazol-3-yl)-1-(naphthalen-2-ylmethyl)-1,2-dihydropyridin-2-one] | < 0.1 | 
7 | O=C(c1cccc2c1OCCO2)n1nc(-c2cccn(Cc3cccnc3)c2=O)cc1NCc1ccc(Cl)s1 [Cmpd 114, 3-(5-[(5-chlorothiophen-2-yl)methyl]amino-1-[(2,3-dihydro-1,4-benzodioxin-5-yl)carbonyl]-1H-pyrazol-3-yl)-1-(pyridin-3-ylmethyl)-1,2-dihydropyridin-2-one] | < 0.1 | 
8 | COc1ccccc1C(=O)n1nc(-c2cccn(Cc3ncccn3)c2=O)cc1NCc1ccc(Cl)s1 [Cmpd 142, 3-(5-[(5-chlorothiophen-2-yl)methyl]amino-1-[(2-methoxyphenyl)carbonyl]-1H-pyrazol-3-yl)-1-(pyrimidin-2-ylmethyl)-1,2-dihydropyridin-2-one] | < 0.1 | 
9 | Nc1cc(-c2ccc[nH]c2=O)n[nH]1 [Cmpd 1, 3-(5-amino-1H-pyrazol-3-yl)-1,2-dihydropyridin-2-one] |  | > 100
10 | O=c1c(-c2cc(NCc3ccc(Cl)s3)[nH]n2)cccn1Cc1ccc(Cl)s1 [Cmpd 42, 1-[(5-chlorothiophen-2-yl)methyl]-3-(5-[(5-chlorothiophen-2-yl)methyl]amino-1H-pyrazol-3-yl)-1,2-dihydropyridin-2-one] | > 100 | 
11 | O=C(c1cccc2c1OCCO2)n1nc(-c2cccn(Cc3ccoc3)c2=O)cc1NCc1ccc(Cl)s1 [Cmpd 111, 3-(5-[(5-chlorothiophen-2-yl)methyl]amino-1-[(2,3-dihydro-1,4-benzodioxin-5-yl)carbonyl]-1H-pyrazol-3-yl)-1-(furan-3-ylmethyl)-1,2-dihydropyridin-2-one] | < 0.1 | 
12 | COCC(C)(C)C(=O)n1nc(-c2cccn(Cc3ccccc3)c2=O)cc1NCc1ccc(Cl)s1 [Cmpd 44, 1-benzyl-3-(5-[(5-chlorothiophen-2-yl)methyl]amino-1-(3-methoxy-2,2-dimethylpropanoyl)-1H-pyrazol-3-yl)-1,2-dihydropyridin-2-one] | < 0.1 | 
13 | CC1(C(=O)n2nc(-c3cccn(Cc4cccnc4)c3=O)cc2NCc2ccc(Cl)s2)CCOCC1 [Cmpd 154, 3-(5-[(5-chlorothiophen-2-yl)methyl]amino-1-[(4-methyloxan-4-yl)carbonyl]-1H-pyrazol-3-yl)-1-(pyridin-3-ylmethyl)-1,2-dihydropyridin-2-one] | < 0.1 | 
14 | COc1ccc(C(=O)n2nc(-c3cccn(Cc4cccnn4)c3=O)cc2NCc2ccc(Cl)s2)c(OC)c1 [Cmpd 124, 3-(5-[(5-chlorothiophen-2-yl)methyl]amino-1-[(2,4-dimethoxyphenyl)carbonyl]-1H-pyrazol-3-yl)-1-(pyridazin-3-ylmethyl)-1,2-dihydropyridin-2-one] | < 0.1 | 
15 | COc1ccccc1C(=O)n1nc(-c2cccn(Cc3ccccc3Cl)c2=O)cc1NCc1ccc(Cl)s1 [Cmpd 28, 1-[(2-chlorophenyl)methyl]-3-(5-[(5-chlorothiophen-2-yl)methyl]amino-1-[(2-methoxyphenyl)carbonyl]-1H-pyrazol-3-yl)-1,2-dihydropyridin-2-one] | < 0.1 | 
16 | O=C(c1ccoc1)n1nc(-c2cccn(Cc3ccncc3)c2=O)cc1NCc1ccc(Cl)s1 [Cmpd 6, 3-(5-[(5-chlorothiophen-2-yl)methyl]amino-1-[(furan-3-yl)carbonyl]-1H-pyrazol-3-yl)-1-(pyridin-4-ylmethyl)-1,2-dihydropyridin-2-one] | < 0.1 | 
17 | O=C(c1ccccc1)n1nc(-c2cccn(Cc3ccoc3)c2=O)cc1NCc1ccc(Cl)s1 [Cmpd 64, 3-(1-benzoyl-5-[(5-chlorothiophen-2-yl)methyl]amino-1H-pyrazol-3-yl)-1-(furan-3-ylmethyl)-1,2-dihydropyridin-2-one] | < 0.1 | 
18 | O=C(c1ccco1)n1nc(-c2cccn(Cc3cccnc3)c2=O)cc1NCc1ccc(Cl)s1 [Cmpd 165, 3-(5-[(5-chlorothiophen-2-yl)methyl]amino-1-[(furan-2-yl)carbonyl]-1H-pyrazol-3-yl)-1-(pyridin-3-ylmethyl)-1,2-dihydropyridin-2-one] | < 0.1 | 

More lines, main results first:

Row | IC50 [1] [µM] | SMILES | IC50 [µM]
19 | < 0.1 | O=C(c1ccc(N2CCOCC2)cc1)n1nc(-c2cccn(Cc3ccco3)c2=O)cc1NCc1ccc(Cl)s1 [Cmpd 209, 3-(5-[(5-chlorothiophen-2-yl)methyl]amino-1-[4-(morpholin-4-yl)phenyl]carbonyl-1H-pyrazol-3-yl)-1-(furan-2-ylmethyl)-1,2-dihydropyridin-2-one] | 
20 | 10 to 100 | COCCn1cccc(-c2cc(NCc3ccc(Cl)s3)n[nH]2)c1=O [Cmpd 220, 3-(5-[(5-chlorothiophen-2-yl)methyl]amino-1H-pyrazol-3-yl)-1-(2-methoxyethyl)-1,2-dihydropyridin-2-one] | 
21 | < 0.1 | CCOC(=O)Cn1cccc(-c2cc(NCc3ccc(Cl)s3)n(C(=O)c3ccoc3)n2)c1=O [Cmpd 259, ethyl 2-[3-(5-[(5-chlorothiophen-2-yl)methyl]amino-1-[(furan-3-yl)carbonyl]-1H-pyrazol-3-yl)-2-oxo-1,2-dihydropyridin-1-yl]acetate] | 
22 | > 100 | O=C(c1cccs1)n1nc(-c2cccn(Cc3cccnn3)c2=O)cc1NCc1ccc(Cl)s1 [Cmpd 185, 3-(5-[(5-chlorothiophen-2-yl)methyl]amino-1-[(thiophen-2-yl)carbonyl]-1H-pyrazol-3-yl)-1-(pyridazin-3-ylmethyl)-1,2-dihydropyridin-2-one] | 
23 | 1 to 10 | O=c1c(-c2cc(NCc3ccc(Cl)s3)[nH]n2)cccn1Cc1ccsc1 [Cmpd 232, 3-(5-[(5-chlorothiophen-2-yl)methyl]amino-1H-pyrazol-3-yl)-1-(thiophen-3-ylmethyl)-1,2-dihydropyridin-2-one] | 
24 | 1 to 10 | O=C(c1ccccc1N1CCOCC1)n1nc(-c2ccc[nH]c2=O)cc1NCc1ccc(Cl)s1 [Cmpd 205, 3-(5-[(5-chlorothiophen-2-yl)methyl]amino-1-[2-(morpholin-4-yl)phenyl]carbonyl-1H-pyrazol-3-yl)-1,2-dihydropyridin-2-one] | 
25 | < 0.1 | O=C(c1ccc(N2CCOCC2)cc1)n1nc(-c2cccn(Cc3ncccn3)c2=O)cc1NCc1ccc(Cl)s1 [Cmpd 215, 3-(5-[(5-chlorothiophen-2-yl)methyl]amino-1-[4-(morpholin-4-yl)phenyl]carbonyl-1H-pyrazol-3-yl)-1-(pyrimidin-2-ylmethyl)-1,2-dihydropyridin-2-one] | 
26 | < 0.1 | O=C(c1ccccc1Cl)n1nc(-c2cccn(Cc3ccsc3)c2=O)cc1NCc1ccc(Cl)s1 [Cmpd 251, 3-1-[(2-chlorophenyl)carbonyl]-5-[(5-chlorothiophen-2-yl)methyl]amino-1H-pyrazol-3-yl-1-(thiophen-3-ylmethyl)-1,2-dihydropyridin-2-one] | 
27 | < 0.1 | O=C(c1ccsc1)n1nc(-c2cccn(Cc3ccco3)c2=O)cc1NCc1ccc(Cl)s1 [Cmpd 195, 3-(5-[(5-chlorothiophen-2-yl)methyl]amino-1-[(thiophen-3-yl)carbonyl]-1H-pyrazol-3-yl)-1-(furan-2-ylmethyl)-1,2-dihydropyridin-2-one] | 
28 | < 0.1 | O=C(c1cccs1)n1nc(-c2cccn(Cc3cccs3)c2=O)cc1NCc1ccc(Cl)s1 [Cmpd 190, 3-(5-[(5-chlorothiophen-2-yl)methyl]amino-1-[(thiophen-2-yl)carbonyl]-1H-pyrazol-3-yl)-1-(thiophen-2-ylmethyl)-1,2-dihydropyridin-2-one] | 
29 | < 0.1 | O=C(c1ccccc1Cl)n1nc(-c2cccn(CCN3CCOCC3)c2=O)cc1NCc1ccc(Cl)s1 [Cmpd 252, 3-1-[(2-chlorophenyl)carbonyl]-5-[(5-chlorothiophen-2-yl)methyl]amino-1H-pyrazol-3-yl-1-[2-(morpholin-4-yl)ethyl]-1,2-dihydropyridin-2-one] | 
30 | < 0.1 | O=C(c1ccoc1)n1nc(-c2cccn(Cc3ccc4ccccc4c3)c2=O)cc1NCc1ccc(Cl)s1 [Cmpd 175, 3-(5-[(5-chlorothiophen-2-yl)methyl]amino-1-[(furan-3-yl)carbonyl]-1H-pyrazol-3-yl)-1-(naphthalen-2-ylmethyl)-1,2-dihydropyridin-2-one] | 
31 | < 0.1 | O=C(c1cccs1)n1nc(-c2cccn(Cc3ccncc3)c2=O)cc1NCc1ccc(Cl)s1 [Cmpd 188, 3-(5-[(5-chlorothiophen-2-yl)methyl]amino-1-[(thiophen-2-yl)carbonyl]-1H-pyrazol-3-yl)-1-(pyridin-4-ylmethyl)-1,2-dihydropyridin-2-one] | 

Reference: US9687479B2, “Multisubstituted aromatic compounds as serine protease inhibitors” (VERSEON CORPORATION, priority 2013, dated 2017)
